The results in this text go back to a melting point compilation (Tetko et al.; mined from patent text by program, amines drawn as free bases though some values may be those of a salt).

Where only a bound is given, the exact number is not on record here.

On to `O=C1c2cc(F)ccc2CCC1CN1CCC2(CC1)C(=O)NCN2c1ccccc1` (stereo unspecified), for which the melting point was 162 to 165 °C.
For `Cc1ccccc1S(=O)(=O)NC(=O)c1ccc2c(c1)CCN2Cc1cccc([N+](=O)[O-])c1`, the melting point fell in the range of 159 to 163 °C.
Consider `CC(C)n1nc(-c2cc(NC(=O)OC(C)(C)C)cnc2-c2ccccc2)ccc1=O`, for which the melting point was in the range of 221 to 223 °C.
Next, `CCCCOc1ccccc1-c1ncc(C(=O)O)c(=O)[nH]1`: 163 to 165 °C; `N=C(N)c1ccc2nc(-c3ccc(-c4nc5ccc(C(=N)N)cc5[nH]4)o3)[nH]c2c1`: over 300 °C.
As to `CC(C)(C)c1ccc(CN=C=S)cc1`, the melting point was 44 to 47 °C.
`CC(=O)SCC(Cc1ccccc1)C(=O)Nc1cccc(C(=O)O)c1C` (stereo unspecified) returned a melting point of 162 to 163 °C.
In turn, `O=C(NCc1ccccc1Cl)Nc1ccc([N+](=O)[O-])cc1O` showed a melting point of 199 to 200 °C.
Take `CC1(C)C2CC[C@]1(C)C(=O)C(C(=O)Nc1cccc([N+](=O)[O-])c1)C2=O` (stereo partly specified): the melting point lay within 100 to 102 °C.
As to `N#Cc1cccc(C2=Nc3ccc(-c4cccc(F)c4F)cc3NC(=O)C2)c1`, the melting point came to 240 °C.
Consider `Cc1nc(OCC#N)c(C#N)c(N2CCc3ccccc3CC2)n1`, for which the melting point lay in the range of 68 to 74 °C.
Regarding `CC(C)C(=O)Nc1cc(C(C)(C)C)on1`, the melting point lay within 123 to 124 °C.
The compound `COC1c2ccccc2C(c2ccc([N+](=O)[O-])cc2)=NN(c2nc(=O)n(C)s2)C1(C)OC` (stereo unspecified) yielded a melting point of 262 to 263 °C.
`O=C(c1ccccc1Cl)c1ccccc1Nc1ncccc1[N+](=O)[O-]` showed a melting point of 119 °C.
On to `ON=C1c2ccccc2-c2c1c(-n1ccnc1)nc1ccc(Br)cc21`, for which the melting point was 268 to 271 °C.
Next, `CCC12CCC3C4CCC(=O)C=C4C=CC3C1CCC2OC(C)=O` (stereo unspecified): 163 to 177 °C; `CCOC(=O)CCC(=O)c1c(COC(C)=O)c(COC(C)=O)cc2cc(OC)c(OC)cc12`: 85 to 87 °C.
`Nc1ccc(Nc2cc3c(cc2Nc2ccc(N)cc2)C(=O)NC3=O)cc1`: the melting point is 154 to 157 °C.
`CC(C)c1cc(C(C)(C)C)cc(Br)c1OCc1ccccc1` returned a melting point of 47 to 49 °C.
Next, `CC(Oc1ccc(Oc2cnc3cc(Cl)ccc3n2)cc1)C(=O)Nc1ccc(OC(F)(F)C(F)F)cc1` (stereo unspecified): 146 to 148 °C; `Cc1ccc(S(=O)(=O)OCCc2cccs2)cc1`: 30 °C.
As for `O=c1ccoc2ccc(OCCCCCl)cc12`, the melting point was in the range of 75 to 77 °C.
In turn, `COc1cc(Nc2nc3cccc(-c4ccc5ncccc5c4)c3o2)cc(OC)c1OC` gave a melting point of 187 to 190 °C.
Consider `CC(C)[C@H](NC(=O)OCc1ccccc1)C(=O)N[C@H](C=O)Cc1ccc(OCc2ccccc2)cc1`, for which the melting point was 160 to 162 °C.
Consider `CN(Cc1cccc2c1C(=O)N(C1CCC(=O)NC1=O)C2=O)C(=O)NC(C)(C)C` (stereo unspecified), for which the melting point lay in the range of 188 to 190 °C.
Turning to `O=C1c2ccccc2C(=O)N1CSc1ccncc1`, the melting point fell in the range of 133 to 134 °C.
Next, `Cc1sc2c(c1C)C(=O)NS2(=O)=O`: 187 °C; `CC(=O)Nc1c(C(=O)c2ccccc2)[nH]c2cc(Cl)ccc12`: 212 to 213 °C; `COc1cc(C#C[Si](C)(C)C)c(OC)cc1C#C[Si](C)(C)C`: 164 to 165 °C.
Take `COc1cc2c(cc1Nc1ncc(Cl)c(Nc3ccccc3S(=O)(=O)C(C)C)n1)CCN(CC(=O)N1CCOCC1)CC2`: the melting point is 100 °C.
For the compound `CCOC(=O)/C(=C\Nc1ccccc1OC)c1ccc(OC)cc1`, the melting point lay in the range of 58 to 59 °C.
In turn, `CC(C)(O)Cn1c(CO)nc2c(N)nc3cc(-c4cncc(CO)c4)cnc3c21` showed a melting point of 149 to 151 °C.
On to `CCOC(=O)C=Cc1ccc(C#N)cc1`, for which the melting point came to 71 °C.
For `CC(=O)Nc1nc2ccccc2c2c(CC(C)C)n(C)nc12`, the melting point lay in the range of 130 to 131 °C.
Consider `CCOc1cccc(-c2ccnc(Nc3cccc(OC(F)(F)C(F)F)c3)n2)c1`, for which the melting point was 88 to 96 °C.
`CC1(C)OC[C@@H](COn2cnc3c(Cl)nc(N)nc32)O1` returned a melting point of 118 to 120 °C.
With `Cc1c(NC(=O)C(CS)CC(C)C)cccc1C(=O)O` (stereo unspecified), the melting point fell in the range of 166 to 168 °C.
On to `COC(=O)C1=C(C)Nc2nc[nH]c(=O)c2C1c1cccc([N+](=O)[O-])c1` (stereo unspecified), for which the melting point was in the range of 289 to 290 °C.
Next, `NCc1cc2c(N)nccc2o1`: 142 to 144 °C; `COC(=O)c1c(S(N)(=O)=O)ccn1C`: 105 to 107 °C.
Regarding `CC(=O)c1cccc(NC(=O)NC2N=C(c3ccccc3F)c3cccc(C)c3N(CC(=O)N3CC4CCC(CC4)C3)C2=O)c1` (stereo unspecified), the melting point is over 250 °C.
Turning to `C#CCN(c1ccc(C(=O)NC(CCCCC(=O)O)C(=O)O)cc1)C1CCc2cc3nc(C)[nH]c(=O)c3cc21` (mixture of isomers), the melting point came to 165 °C.
With `Cc1c(C)c2c(c(C)c1O)CCC(C)(C#N)O2` (stereo unspecified) the figure was 149 to 151 °C; with `CCCCn1c(CCCCN(C(N)=O)c2ccccc2)nc2c(N)nc3ccccc3c21`, 222 to 225 °C.
With `CCCCc1nn(-c2cc(N)ccc2C(F)(F)F)c(=O)n1Cc1ccc(-c2ccccc2S(=O)(=O)NC(=O)OC(C)(C)C)cc1` the figure was 154 to 156 °C; with `C=CC(C)c1cc(C)c2c(c1)C(=O)CC2` (stereo unspecified), 88 to 92 °C.
Take `CC(C)=CC(=O)Nc1ccccc1CCN1CCN(c2nsc3ccccc23)CC1`: the melting point stood at 52 °C.
Next, `CC(C)n1cc(-c2nc(C(N)=O)c(N)nc2-c2cccc(Cl)c2)ccc1=O`: 233 °C.
Compound `O=C(O)C(=O)c1cc2ccccc2s1` displayed a melting point of 176 °C.
With `CC1(C)COCC(=O)N1NCc1ccccc1`, the melting point was 76 to 77 °C.
`Cc1c(N2CC(O)C2)c(F)cc2c(=O)c(C(=O)O)cn(-c3nc(N)c(F)cc3F)c12`: the melting point lay in the range of 245 to 247 °C.
The compound `CSc1ccc(C(=O)CBr)cc1F` registered a melting point of 70 to 71 °C.
With `CC(=O)OC1CCC2(C)C(CCC3=C4C(=O)CC(C(C)CCC=O)C4(C)CCC32)C1` (stereo unspecified), the melting point was 162 to 164 °C.
Consider `CCOC(=O)/C(=C/c1coc2cc(OC)ccc2c1=O)Cc1cc2c(cc1OC)OCO2`, for which the melting point lay in the range of 140 to 141 °C.
`O=C(O)CC1(CCCCCCCCCCC2(C(=O)O)CC2)CCC1` displayed a melting point of 62 to 63.9 °C.
For the compound `NCc1c(Cc2ccccc2)nc2ccc(OCC(N)=O)cc2c1-c1ccccc1`, the melting point lay in the range of 180 to 182 °C.
For `COC(=O)CCn1c(=O)n(CCN2CCN(c3ccccc3C)CC2)c(=O)c2cscc21`, the melting point was 149 to 150 °C.
Regarding `NC(=O)c1nc(-c2cccnc2)nc2c1[nH]c(=O)n2Cc1ccccc1`, the melting point is 334 to 335 °C.
Compound `N#Cc1ccc(N2C(=O)[C@@H]3[C@H](O)CCN3C2=O)c2ccccc12` (relative stereo) displayed a melting point of 224 to 225 °C.
With `O=C(O)CS(=O)(=O)Nc1ccc(F)cc1F` the figure was 110 to 112 °C; with `Cn1ncc2c1-c1c(Oc3ccc4c(c3)OCO4)sc(C(=O)c3cccnc3)c1CC2`, 180 to 182 °C; with `Nc1cc(-n2cccc2)ccc1Nc1cccc(-c2cncnc2)c1`, 190 to 192 °C.
`Cc1ccc2oc(=O)c(C(=O)Oc3cc(F)ccc3F)cc2c1`: the melting point is 155 to 159 °C.
Take `NS(=O)(=O)c1cccc(Cl)c1C=C1CCOC1=O`: the melting point was in the range of 172 to 174 °C.
In the case of `CCOC(=O)c1cc(C)n(-c2ccc([N+](=O)[O-])cn2)c1-c1ccccc1`, the melting point was in the range of 147 to 149 °C.
As for `Cc1ccc([N+](=O)[O-])c(O)c1CCC(C)Br` (stereo unspecified), the melting point lay in the range of 67 to 69 °C.
In the case of `O=C1NCN(c2ccc(Br)cc2)C12CCN(C1C=CC(c3ccc(F)cc3)(c3ccc(F)cc3)CC1)CC2` (stereo unspecified), the melting point fell in the range of 219 to 221 °C.
For `O=C1NCCC1Cc1ccc(Cl)nc1` (stereo unspecified), the melting point was 117 to 118 °C.
Next, `CC(=O)SCC(Cc1ccccc1)C(=O)Nc1cc(C)cc(C(=O)O)c1C` (stereo unspecified): 182 to 186 °C; `CC(=O)OC1CSC(Oc2ccc(-c3cccnc3)nc2)C(OC(C)=O)C1OC(C)=O` (stereo unspecified): 196 °C.
Next, `COc1ccc(Nc2nc(=O)c3cccnc3s2)cc1`: 250 to 251 °C.
The compound `COc1nc(NC(=O)NS(=O)(=O)c2ccccc2S(C)(=O)=O)nc(N(C)C)n1` gave a melting point of 192 to 195 °C.
`Nc1c(-c2ccc(Oc3ccccc3)cc2)nc2ccccc2c1C(=O)O` displayed a melting point of 218 to 220 °C.
The compound `CCCCNC(=O)C1CCNCC1` registered a melting point of 75 to 79 °C.
`O=C(Nc1cc(-c2cc(Nc3ccc(N4CCNCC4=O)cn3)c(=O)[nH]n2)ccc1F)c1cc2c(s1)CCCC2` had a melting point of 285 to 287 °C.
Next, `Cc1cc(-c2cnn3c(C(F)(F)F)cc(-c4ccc(C)c(C(F)(F)F)c4)nc23)cc(C)n1`: 258 °C; `COc1cccc(CC(=O)O)c1OCCCc1cn(-c2ccccn2)nc1C(C)C`: 102 to 104 °C.
Compound `CCOC(=O)C1CC(O)c2cc3c(cc2C1c1cc(OC)c(OC)c(OC)c1)OCO3` (stereo unspecified) gave a melting point of 151 to 152 °C.
On to `CN1C(=O)CC[C@]2(C)c3ccc(-c4cc(Cl)cc(Cl)c4)cc3CC[C@@H]12`, for which the melting point was 172 °C.
Turning to `CN1CCc2cc(C#CCO)cc3c(=O)c(C(=O)NCc4ccc(Cl)cc4)cn1c23`, the melting point lay in the range of 165 to 167 °C.
`O=C(O)CCCCCC(=O)CCc1ccc(Cl)cc1` showed a melting point of 93 to 96 °C.
Compound `CN(Cc1ccc(NC(=O)C2=Cc3cc(-c4ccc(S(C)(=O)=O)cc4)ccc3OCC2)cc1)C1CCOCC1` yielded a melting point of 233 to 235 °C.
With `CN(C)S(=O)(=O)N[C@@H](Cc1ccc(Nc2nccc3cnccc23)cc1)C(=O)O` the figure was 211 °C.
With `CCO/C(=C\c1ccc(C#N)cc1)C(=O)O` the figure was 171 to 172 °C; with `COc1ccc(-c2nnc3c4ccccc4c(Nc4ccc(NC(=O)c5ccccn5)cc4)nn23)cc1`, 301 to 305 °C.
With `CS(=O)(=O)c1ccc(C=Cc2cc(=O)cc(-c3ccccc3)o2)cc1` the figure was 239 to 241 °C.

By melting point is commonly meant the temperature of the solid-liquid transition.
